From patent US20260265271A1, “Cereblon Ligands and Uses Thereof” (REGENTS OF THE UNIVERSITY OF MICHIGAN, priority 2022, published 2026)
Where a name gives a salt, the structure may show the parent alone.

Target: wild-type human CRBN protein (Homo sapiens, UniProt Q96SW2)
Assay: biochemical
Conditions: not given

Chain of wild-type human CRBN protein (Q96SW2 whole entry): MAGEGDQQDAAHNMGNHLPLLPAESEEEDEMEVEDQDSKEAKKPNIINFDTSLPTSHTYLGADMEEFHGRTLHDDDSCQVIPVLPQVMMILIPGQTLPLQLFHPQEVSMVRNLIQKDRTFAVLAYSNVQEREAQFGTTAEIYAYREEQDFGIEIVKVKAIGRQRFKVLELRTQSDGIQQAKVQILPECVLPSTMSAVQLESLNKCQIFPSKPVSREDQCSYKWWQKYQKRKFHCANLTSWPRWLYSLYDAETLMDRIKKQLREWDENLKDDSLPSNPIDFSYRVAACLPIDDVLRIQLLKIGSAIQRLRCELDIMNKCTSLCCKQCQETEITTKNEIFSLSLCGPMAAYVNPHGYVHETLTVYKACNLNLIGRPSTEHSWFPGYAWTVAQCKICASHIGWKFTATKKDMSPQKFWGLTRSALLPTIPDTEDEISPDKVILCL

Row | SMILES | IC50 [nM]
1 | CN1C[C@@H]2CNCCN2c2cc3c(cc21)C(=O)N(C1CCC(=O)NC1=O)C3 (stereo partly drawn) [Compound B7, 3-((S)-6-methyl-8-oxo-2,3,4,4a,5,6,8,10-octahydropyrazino[1,2-a]pyrrolo[3,4-g]quinoxalin-9(1H)-yl)piperidine-2,6-dione trifluoroacetate salt] | 740
2 | CN1CCN2c3cc4c(cc3N(C)C[C@@H]2C1)C(=O)N(C1CCC(=O)NC1=O)C4 (stereo partly drawn) [Compound B8, 3-((S)-3,6-dimethyl-8-oxo-2,3,4,4a,5,6,8,10-octahydropyrazino[1,2-a]pyrrolo[3,4-g]quinoxalin-9(1H)-yl)piperidine-2,6-dione] | 940
3 | CN1CCN2c3cc4c(cc3NC(=O)[C@@H]2C1)C(=O)N(C1CCC(=O)NC1=O)C4 (stereo partly drawn) [Compound B10, (4aS)-9-(2,6-dioxopiperidin-3-yl)-3-methyl-2,3,4,4a,9,10-hexahydropyrazino[1,2-a]pyrrolo[3,4-g]quinoxaline-5,8(1H,6H)-dione] | 600
4 | CN1CCN2c3ccc4c(c3N(C)C[C@@H]2C1)CN(C1CCC(=O)NC1=O)C4=O (stereo partly drawn) [Compound B12, 3-((S)-4,7-dimethyl-1-oxo-3,4,5,5a,6,7,8,9-octahydropyrazino[1,2-a]pyrrolo[3,4-f]quinoxalin-2(1H)-yl)piperidine-2,6-dione] | 580
5 | N[C@H]1C[C@H]2COc3cc4c(cc3N2C1)CN([C@H]1CCC(=O)NC1=O)C4=O [Compound B17, (S)-3-((2S,3aS)-2-amino-7-oxo-2,3,3a,4,7,9-hexahydro-1H,8H-pyrrolo[1′,2′:4,5][1,4]oxazino[2,3-f]isoindol-8-yl)piperidine-2,6-dione] | 130
6 | N[C@H]1C[C@H]2COc3cc4c(cc3N2C1)C(=O)N(C1CCC(=O)NC1=O)C4=O (stereo partly shown) [Compound B18] | 220
7 | O=C1CC[C@H](NC(=O)c2ccc3c(n2)OC[C@H]2CNCCN32)C(=O)N1 [Compound B19, (R)-N-((S)-2,6-dioxopiperidin-3-yl)-1,2,3,4,4a,5-hexahydropyrazino[1,2-d]pyrido [2,3-b][1,4]oxazine-8-carboxamide] | 30200
8 | CN(C(=O)c1ccc2c(n1)OC[C@H]1CNCCN21)C1CCC(=O)NC1=O (stereo partly drawn) [Compound B20, (4aR)-N-(2,6-dioxopiperidin-3-yl)-N-methyl-1,2,3,4,4a,5-hexahydropyrazino[1,2-d]pyrido[2,3-b][1,4]oxazine-8-carboxamide] | 17500
9 | CN(C(=O)c1ccc2c(c1)OC[C@H]1CNCCN21)C1CCC(=O)NC1=O (stereo partly drawn) [Compound B21, (4aR)—N-(2,6-dioxopiperidin-3-yl)-N-methyl-1,2,3,4,4a,5-hexahydrobenzo[b]pyrazino[1,2-d][1,4]oxazine-8-carboxamide] | 4600
10 | O=C1CC[C@H](NC(=O)c2ccc3c(c2)OC[C@H]2CNCCN32)C(=O)N1 [Compound B22, (R)—N—((S)-2,6-dioxopiperidin-3-yl)-1,2,3,4,4a,5-hexahydrobenzo[b]pyrazino[1,2-d][1,4]oxazine-8-carboxamide] | 23000
11 | O=C1CC[C@H](NC(=O)c2ccc3c(c2)OC[C@@H]2CNCCN32)C(=O)N1 [Compound B23, (S)—N—((S)-2,6-dioxopiperidin-3-yl)-1,2,3,4,4a,5-hexahydrobenzo[b]pyrazino[1,2-d][1,4]oxazine-8-carboxamide] | 25000
12 | CN(C(=O)c1ccc2c(c1)OC[C@@H]1CNCCN21)C1CCC(=O)NC1=O (stereo partly drawn) [Compound B24, (4aS)—N-(2,6-dioxopiperidin-3-yl)-N-methyl-1,2,3,4,4a,5-hexahydrobenzo[b]pyrazino[1,2-d][1,4]oxazine-8-carboxamide] | 3400
13 | CCN1CCN2c3ccc4c(c3OC[C@H]2C1)CN([C@H]1CCC(=O)NC1=O)C4=O [Compound C8, (S)-3-((R)-7-ethyl-1-oxo-1,3,5,5a,6,7,8,9-octahydro-2H-pyrazino[1′,2′:4,5][1,4]oxazino[2,3-e]isoindol-2-yl)piperidine-2,6-dione] | 470
14 | CC(=O)N1CCN2c3ccc4c(c3OC[C@H]2C1)CN([C@H]1CCC(=O)NC1=O)C4=O [Compound C9, (S)-3-((R)-7-acetyl-1-oxo-1,3,5,5a,6,7,8,9-octahydro-2H-pyrazino[1′,2′:4,5][1,4]oxazino[2,3-e]isoindol-2-yl)piperidine-2,6-dione] | 180
15 | CC(=O)N1CCN2c3ccc4c(c3OC[C@@H]2C1)CN([C@H]1CCC(=O)NC1=O)C4=O [Compound C10, (S)-3-((S)-7-acetyl-1-oxo-1,3,5,5a,6,7,8,9-octahydro-2H-pyrazino[1′,2′:4,5][1,4]oxazino[2,3-e]isoindol-2-yl)piperidine-2,6-dione] | 200
16 | O=C1CC[C@H](N2Cc3c(ccc4c3OC[C@@H]3CN(Cc5ccc(C(F)F)cc5)CCN43)C2=O)C(=O)N1 [Compound C11, (S)-3-((S)-7-(4-(difluoromethyl)benzyl)-1-oxo-1,3,5,5a,6,7,8,9-octahydro-2H-pyrazino[1′,2′:4,5][1,4]oxazino[2,3-e]isoindol-2-yl)piperidine-2,6-dione] | 90
17 | O=C1CC[C@H](N2Cc3c(ccc4c3OC[C@@H]3CN(Cc5ccc(F)c(F)c5)CCN43)C2=O)C(=O)N1 [Compound C12, (S)-3-((S)-7-(3,4-difluorobenzyl)-1-oxo-1,3,5,5a,6,7,8,9-octahydro-2H-pyrazino[1′,2′:4,5][1,4]oxazino[2,3-e]isoindol-2-yl)piperidine-2,6-dione] | 240
18 | O=C1CC[C@H](N2Cc3c(ccc4c3OC[C@@H]3CN(Cc5ccc(F)cc5Cl)CCN43)C2=O)C(=O)N1 [Compound C13, (S)-3-((S)-7-(2-chloro-4-fluorobenzyl)-1-oxo-1,3,5,5a,6,7,8,9-octahydro-2H-pyrazino[1′,2′:4,5][1,4]oxazino[2,3-e]isoindol-2-yl)piperidine-2,6-dione] | 90
19 | O=C1CCC(N2Cc3cc4c(cc3C2=O)OC[C@@H]2CN(Cc3ccc(F)cc3)CCN42)C(=O)N1 (stereo partly drawn) [Compound C19, 3-((S)-3-(4-fluorobenzyl)-8-oxo-1,2,3,4,4a,5,8,10-octahydro-9H-pyrazino[1′,2′:4,5][1,4]oxazino[2,3-f]isoindol-9-yl)piperidine-2,6-dione] | 330

Target: T1, IKZF2 (Homo sapiens, UniProt Q96SW2+Q9UKS7)
T1 construct: host or cells: Jurkat-IKZF2-HiBiT
Assay: IKZF2 HiBiT degradation assay (Jurkat-IKZF2-HiBiT)
Type: cell-based
Conditions: read-out: IKZF2 degradation DC50; Jurkat-IKZF2-HiBiT cells, 24 hours
Protocol: Degradation of IKZF2 protein was determined by IKZF2 HiBiT assay using the Jurkat-IKZF2-HiBiT (Promega) cell line. […] Compounds were serially diluted in culture medium, and 20 μl of the diluted compounds were added to the appropriate wells of the plate. After the addition of compounds, the cells were incubated at 37° C. in an atmosphere of 5% CO2 for 24 hours. At the end of treatment, 40 ul of Nano-Glo HiBiT Lytic Detection Reagent (Promega) was added to each well, and then the plates were incubated at room temperature for 10-20 minutes. The luminescent signal was measured using a CALRIOstar plate reader (BMG Labtech). The readings were normalized to the DMSO-treated cells and the IC50 was calculated by nonlinear regression (four parameters sigmoid fitted with variable slope, least squares fit, and no constraint) analysis using the GraphPad Prism 8 software.

T1 sequence (Q9UKS7 whole entry): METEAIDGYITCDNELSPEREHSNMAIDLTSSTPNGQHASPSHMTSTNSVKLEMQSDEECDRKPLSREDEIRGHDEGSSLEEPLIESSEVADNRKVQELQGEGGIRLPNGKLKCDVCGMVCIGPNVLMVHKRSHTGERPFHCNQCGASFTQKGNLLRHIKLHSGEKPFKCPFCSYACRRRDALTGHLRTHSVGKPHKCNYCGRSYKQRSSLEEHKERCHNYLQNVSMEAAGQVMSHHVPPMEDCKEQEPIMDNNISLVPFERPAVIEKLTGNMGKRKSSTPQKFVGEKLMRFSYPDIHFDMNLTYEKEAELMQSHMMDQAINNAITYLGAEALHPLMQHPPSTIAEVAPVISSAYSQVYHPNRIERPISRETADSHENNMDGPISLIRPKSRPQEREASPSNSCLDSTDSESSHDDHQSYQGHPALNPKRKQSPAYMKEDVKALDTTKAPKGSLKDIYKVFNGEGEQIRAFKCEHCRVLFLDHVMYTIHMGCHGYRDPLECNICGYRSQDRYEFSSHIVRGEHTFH
T1 sequence (Q96SW2 whole entry): as the sequence (Q96SW2 whole entry) above
T1 sequence (Q16531 2-1140 partner limits assumed): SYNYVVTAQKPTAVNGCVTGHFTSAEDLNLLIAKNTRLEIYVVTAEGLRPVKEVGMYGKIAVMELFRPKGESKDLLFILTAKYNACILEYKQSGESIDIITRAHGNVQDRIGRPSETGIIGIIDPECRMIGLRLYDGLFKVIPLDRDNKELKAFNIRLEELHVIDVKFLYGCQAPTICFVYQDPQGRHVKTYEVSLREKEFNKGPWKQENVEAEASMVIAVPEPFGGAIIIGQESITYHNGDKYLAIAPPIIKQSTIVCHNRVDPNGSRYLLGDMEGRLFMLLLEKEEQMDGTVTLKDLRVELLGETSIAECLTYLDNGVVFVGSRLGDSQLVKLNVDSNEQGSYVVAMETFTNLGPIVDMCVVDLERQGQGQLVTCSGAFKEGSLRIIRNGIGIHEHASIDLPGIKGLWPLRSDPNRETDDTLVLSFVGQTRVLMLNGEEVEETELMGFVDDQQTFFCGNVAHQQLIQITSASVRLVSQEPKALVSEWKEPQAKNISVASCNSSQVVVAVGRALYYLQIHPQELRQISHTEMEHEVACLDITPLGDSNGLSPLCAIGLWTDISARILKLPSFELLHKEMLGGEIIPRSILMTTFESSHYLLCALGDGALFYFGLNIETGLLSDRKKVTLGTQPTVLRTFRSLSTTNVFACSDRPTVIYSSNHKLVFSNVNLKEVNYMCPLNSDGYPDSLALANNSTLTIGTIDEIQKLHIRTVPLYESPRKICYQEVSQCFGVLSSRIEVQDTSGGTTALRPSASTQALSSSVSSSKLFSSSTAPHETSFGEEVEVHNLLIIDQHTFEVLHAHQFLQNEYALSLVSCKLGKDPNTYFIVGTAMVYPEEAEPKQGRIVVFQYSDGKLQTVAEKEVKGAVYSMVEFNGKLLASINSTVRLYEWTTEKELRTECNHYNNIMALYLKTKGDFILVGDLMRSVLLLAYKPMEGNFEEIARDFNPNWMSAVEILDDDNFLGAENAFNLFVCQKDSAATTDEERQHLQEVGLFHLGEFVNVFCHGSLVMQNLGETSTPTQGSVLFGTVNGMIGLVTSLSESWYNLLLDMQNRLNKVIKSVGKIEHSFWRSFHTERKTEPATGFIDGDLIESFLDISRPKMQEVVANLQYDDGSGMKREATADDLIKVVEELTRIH

Row | SMILES | DC50 [nM]
20 | O=C1CCC(N2Cc3cc4c(cc3C2=O)OC[C@@H]2CN(Cc3ccc(F)cc3)CCN42)C(=O)N1 (stereo partly drawn) [Compound C19, 3-((S)-3-(4-fluorobenzyl)-8-oxo-1,2,3,4,4a,5,8,10-octahydro-9H-pyrazino[1′,2′:4,5][1,4]oxazino[2,3-f]isoindol-9-yl)piperidine-2,6-dione] | > 2000

Same assay, conditions: read-out: IKZF2 degradation Dmax (%)

Row | SMILES | Dmax [%]
21 | O=C1CCC(N2Cc3cc4c(cc3C2=O)OC[C@@H]2CN(Cc3ccc(F)cc3)CCN42)C(=O)N1 (stereo partly drawn) [Compound C19, 3-((S)-3-(4-fluorobenzyl)-8-oxo-1,2,3,4,4a,5,8,10-octahydro-9H-pyrazino[1′,2′:4,5][1,4]oxazino[2,3-f]isoindol-9-yl)piperidine-2,6-dione] | 0

Target: CRBN/DDB1 (Homo sapiens, UniProt Q96SW2)
Assay: biochemical
Conditions: not given

Chain of CRBN/DDB1 (Q96SW2 whole entry): as the sequence (Q96SW2 whole entry) above
Chain of CRBN/DDB1 (Q16531 whole entry, further chain): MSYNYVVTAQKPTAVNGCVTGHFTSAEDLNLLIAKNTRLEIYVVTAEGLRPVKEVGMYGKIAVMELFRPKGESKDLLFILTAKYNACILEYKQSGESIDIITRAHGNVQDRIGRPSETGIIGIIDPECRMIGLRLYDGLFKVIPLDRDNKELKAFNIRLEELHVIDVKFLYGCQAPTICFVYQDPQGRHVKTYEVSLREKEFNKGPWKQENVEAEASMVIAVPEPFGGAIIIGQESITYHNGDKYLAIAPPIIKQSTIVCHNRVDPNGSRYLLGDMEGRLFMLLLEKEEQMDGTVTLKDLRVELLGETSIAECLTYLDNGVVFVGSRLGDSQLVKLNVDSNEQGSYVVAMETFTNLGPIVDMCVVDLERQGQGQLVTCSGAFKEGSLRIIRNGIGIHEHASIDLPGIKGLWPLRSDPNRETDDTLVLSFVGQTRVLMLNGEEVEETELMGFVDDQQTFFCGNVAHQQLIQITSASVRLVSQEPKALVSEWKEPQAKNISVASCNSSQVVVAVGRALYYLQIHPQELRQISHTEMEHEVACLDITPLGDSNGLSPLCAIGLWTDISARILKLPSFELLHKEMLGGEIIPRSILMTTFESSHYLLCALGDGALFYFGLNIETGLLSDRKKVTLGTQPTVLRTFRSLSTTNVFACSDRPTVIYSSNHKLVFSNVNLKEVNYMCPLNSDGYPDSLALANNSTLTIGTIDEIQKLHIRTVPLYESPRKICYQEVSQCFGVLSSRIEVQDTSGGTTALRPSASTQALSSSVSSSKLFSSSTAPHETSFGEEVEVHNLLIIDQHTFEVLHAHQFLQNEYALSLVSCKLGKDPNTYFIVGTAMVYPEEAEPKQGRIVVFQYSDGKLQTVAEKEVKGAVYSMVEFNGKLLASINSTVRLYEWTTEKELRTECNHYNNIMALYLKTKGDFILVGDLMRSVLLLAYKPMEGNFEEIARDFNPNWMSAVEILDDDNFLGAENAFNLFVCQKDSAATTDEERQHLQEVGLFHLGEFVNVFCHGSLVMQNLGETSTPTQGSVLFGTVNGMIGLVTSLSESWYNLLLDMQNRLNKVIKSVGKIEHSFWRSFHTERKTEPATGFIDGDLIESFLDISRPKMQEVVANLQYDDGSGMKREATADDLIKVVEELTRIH

Row | SMILES | IC50 [nM]
22 | O=C1CC[C@H](NC(=O)c2cc3c(cc2F)N2CCNC[C@H]2CO3)C(=O)N1 [Compound A1, (S)—N—((S)-2,6-dioxopiperidin-3-yl)-9-fluoro-1,2,3,4,4a,5-hexahydrobenzo[b]pyrazino[1,2-d][1,4]oxazine-8-carboxamide hydrochloride] | 21800

Target: ER (Homo sapiens, UniProt P03372)
Assay: ER degradation by in-cell western (ICW), MCF7 cells
Type: cell-based
Set-up: endogenous in cells; host or cells: MCF-7
Conditions: MCF7, read-out: MCF7 Dmax (%)
Protocol: ERa degradative activity of compounds can be assessed in MCF-7 and T47D Cells. MCF-7 and T47D cell are seeded and are subsequently treated with the compounds at certain concentrations (e.g., 0.02 to 300 nM). DMSO can be used as vehicle control. Cells are fixed and are blocked with Intercept (PBS) Blocking Buffer (e.g., Li—COR, Odyssey Blocking Buffer), and are stained with ER (e.g., 1:500, Cell signaling) primary antibody for overnight at cold room. Secondary Antibody (e.g., IRDye 800CW Goat anti-Rabbit IgG) and CellTag 700 Stain are added in Intercept (PBS) Blocking Buffer. Finally, cell plate is placed in incubator to dry. Image and signal were captured on Odyssey@DLx Imaging System.
In-cell western blot analysis. Cells are seeded in multi-well plates (e.g., at 40,000 or 10,000 cells/well). Diluted compounds at certain concentration are added (final 0.5% DMSO) and cells are incubated for certain period of time (e.g., 16 hours). Formaldehyde (e.g., PBS:FA=9:1) is added and followed by washing with PBS. The cells are blocked with Licor blocking buffer (Li-Cor). The relative ER percentage in treated cells were obtained by comparing the values of treated wells to those in untreated and DMSO-treated wells as 100%.
In-cell western blot analysis. a. seed cells in black-sided/clear bottom 96- or 384-well plates at 40,000 or 10,000 cells/well, overnight; b. add diluted compounds (final 0.5% DMSO), 16 hours. […] RT 2 h, gentle shaking. Negative control: cells plus secondary antibodies (no primary antibodies); e. wash×4 with PBS +0.05-0.1% Tween 20, gentel shaking; f. anti-rabbit-680 and anti-mouse-800 (both 1:1000 in LiCor block +0.05% Tween20, RT 1 h, gentle shaking, no light. LI-COR: 0.2% to reduce background; g. wash×4 with PBS+0.05% Tween 20, gental shaking; h. add 100 μL or 25 μL of PBS to each well and read on CLX plate reader. The relative ER percentage in treated cells were obtained by comparing the values of treated wells to those in untreated and DMSO-treated wells as 100%.

Chain of ER (P03372 whole entry): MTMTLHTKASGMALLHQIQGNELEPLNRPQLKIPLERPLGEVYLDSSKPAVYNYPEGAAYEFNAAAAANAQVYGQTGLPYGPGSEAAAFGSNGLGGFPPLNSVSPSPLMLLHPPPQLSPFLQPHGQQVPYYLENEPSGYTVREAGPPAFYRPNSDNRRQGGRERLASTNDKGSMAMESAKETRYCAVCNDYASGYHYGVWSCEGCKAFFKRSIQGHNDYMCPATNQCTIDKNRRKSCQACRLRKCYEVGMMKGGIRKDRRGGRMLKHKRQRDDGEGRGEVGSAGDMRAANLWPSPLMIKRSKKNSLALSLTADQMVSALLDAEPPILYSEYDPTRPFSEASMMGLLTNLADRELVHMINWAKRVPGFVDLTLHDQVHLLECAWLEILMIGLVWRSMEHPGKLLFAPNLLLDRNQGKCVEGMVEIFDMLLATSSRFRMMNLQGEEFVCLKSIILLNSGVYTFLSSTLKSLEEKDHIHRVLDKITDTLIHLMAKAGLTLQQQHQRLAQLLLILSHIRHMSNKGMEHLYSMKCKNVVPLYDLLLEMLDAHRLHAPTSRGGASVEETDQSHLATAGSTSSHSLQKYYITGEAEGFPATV

Row | SMILES | Dmax [%]
23 | O=C1CC[C@H](N2Cc3cc4c(cc3C2=O)OC[C@@H]2CN(CC3CC5(CCN(c6ccc([C@@H]7c8ccc(O)cc8OC[C@@H]7c7ccccc7)cc6)CC5)C3)CCN42)C(=O)N1 [CHR-A59, (S)-3-((S)-3-((7-(4-((3S,4R)-7-hydroxy-3-phenylchroman-4-yl)phenyl)-7-azaspiro[3.5]nonan-2-yl)methyl)-8-oxo-1,2,3,4,4a,5,8,10-octahydro-9H-pyrazino[1′,2′:4,5][1,4]oxazino[2,3-f]isoindol-9-yl)piperidine-2,6-dione] | 50 to 75

Same assay, conditions: MCF7 cells, ER in-cell western, 16 hours

Row | SMILES | DC50 [nM]
24 | O=C1CC[C@H](N2Cc3cc4c(cc3C2=O)OC[C@@H]2CN(CC3CC5(CCN(c6ccc([C@@H]7c8ccc(O)cc8OC[C@@H]7c7ccccc7)cc6)CC5)C3)CCN42)C(=O)N1 [CHR-A59, (S)-3-((S)-3-((7-(4-((3S,4R)-7-hydroxy-3-phenylchroman-4-yl)phenyl)-7-azaspiro[3.5]nonan-2-yl)methyl)-8-oxo-1,2,3,4,4a,5,8,10-octahydro-9H-pyrazino[1′,2′:4,5][1,4]oxazino[2,3-f]isoindol-9-yl)piperidine-2,6-dione] | 1 to 10
25 | O=C1CC[C@@H](N2Cc3cc4c(cc3C2=O)OC[C@H]2CN(CC3CCC5(CC3)CN(c3ccc([C@H]6c7ccc(O)cc7OC[C@H]6c6ccccc6)cc3)C5)CCN42)C(=O)N1 [CHR-A118, (R)-3-((R)-3-((2-(4-((3R,4S)-7-hydroxy-3-phenylchroman-4-yl)phenyl)-2-azaspiro[3.5]nonan-7-yl)methyl)-8-oxo-1,2,3,4,4a,5,8,10-octahydro-9H-pyrazino[1′,2′:4,5][1,4]oxazino[2,3-f]isoindol-9-yl)piperidine-2,6-dione] | 1 to 10
